Activity calls are given as the source filed them. No cut-off for these calls is given here.
Legend:
[1] = target: T1, Amyloid-beta precursor protein (Homo sapiens, UniProt P05067); experiment: Displacement of [125I]BOB-4 from Amyloid beta (1 to 42) (unknown origin)
[2] = system: Liver; experiment: Biodistribution in iv dosed ICR mouse liver measured at 10 mins; assay type: ADME, organism-based; conditions: in vivo
[3] = system: Intestine; experiment: Biodistribution in iv dosed ICR mouse intestine assessed per organ measured at 2 mins; assay type: ADME, organism-based; conditions: in vivo
[4] = system: Brain; experiment: Biodistribution in iv dosed ICR mouse brain measured at 2 mins; assay type: ADME, organism-based; conditions: in vivo
[5] = system: Stomach; experiment: Biodistribution in iv dosed ICR mouse stomach assessed per organ measured at 10 mins; assay type: ADME, organism-based; conditions: in vivo
[6] = system: Intestine; experiment: Biodistribution in iv dosed ICR mouse intestine assessed per organ measured at 60 mins; assay type: ADME, organism-based; conditions: in vivo, 1 h
[7] = system: Stomach; experiment: Biodistribution in iv dosed ICR mouse stomach assessed per organ measured at 60 mins; assay type: ADME, organism-based; conditions: in vivo, 1 h
[8] = system: Stomach; experiment: Biodistribution in iv dosed ICR mouse stomach assessed per organ measured at 30 mins; assay type: ADME, organism-based; conditions: in vivo, 0.5 h
[9] = Partition coefficient, log D of the compound; assay type: physicochemical; conditions: octanol/water
[10] = system: Intestine; experiment: Biodistribution in iv dosed ICR mouse intestine assessed per organ measured at 30 mins; assay type: ADME, organism-based; conditions: in vivo, 0.5 h
[11] = system: Stomach; experiment: Biodistribution in iv dosed ICR mouse stomach assessed per organ measured at 2 mins; assay type: ADME, organism-based; conditions: in vivo
[12] = system: Intestine; experiment: Biodistribution in iv dosed ICR mouse intestine assessed per organ measured at 10 mins; assay type: ADME, organism-based; conditions: in vivo
[13] = species: Mus musculus; experiment: Binding affinity to amyloid beta plaques in white matter of C57BL6 APPswe/PSEN1 Tg mouse brain by DANIR 3b staining based autoradiography analysis; assay type: tissue-based; conditions: tested as the 18F-labelled form
[14] = target: T1, Amyloid-beta precursor protein; experiment: Binding affinity to amyloid beta plaques in alzheimer's disease patient cerebral cortex by DANIR 3b staining based autoradiographic analysis; assay type: tissue-based; conditions: tested as the 18F-labelled form
[15] = species: Mus musculus; experiment: Binding affinity to amyloid beta plaques in C57BL6 mouse brain by DANIR 3b staining based autoradiographic analysis; assay type: tissue-based; conditions: tested as the 18F-labelled form
[16] = target: T1, Amyloid-beta precursor protein; experiment: Binding affinity to amyloid beta plaques in healthy human brain by DANIR 3b staining based autoradiographic analysis; conditions: tested as the 18F-labelled form
[17] = species: Mus musculus; experiment: Binding affinity to amyloid beta plaques in C57BL6 APPswe/PSEN1 Tg mouse cerebral cortex by DANIR 3b staining based autoradiographic analysis; assay type: tissue-based; conditions: tested as the 18F-labelled form
[18] = target: T1, Amyloid-beta precursor protein; experiment: Binding affinity to amyloid beta plaques in white matter of alzheimer's disease patient brain by DANIR 3b staining based autoradiographic analysis; assay type: tissue-based; conditions: tested as the 18F-labelled form
[19] = system: Brain; experiment: Ratio of drug level in CD1 mouse brain at 370 kBq measured at 2 to 60 mins; assay type: ADME; conditions: in vivo
[20] = Metabolic stability in ICR mouse liver assessed as compound remaining at 35 to 45 Mbq, iv measured at 60 mins by HPLC analysis; assay type: ADME, organism-based; conditions: read-out: Stability
[21] = Metabolic stability in ICR mouse liver assessed as compound remaining at 35 to 45 Mbq, iv measured at 30 mins by HPLC analysis; assay type: ADME, organism-based; conditions: read-out: Stability
[22] = Metabolic stability in ICR mouse brain assessed as compound remaining at 35 to 45 Mbq, iv measured at 2 mins by HPLC analysis; assay type: ADME, organism-based; conditions: read-out: Stability
[23] = Metabolic stability in ICR mouse brain assessed as compound remaining at 35 to 45 Mbq, iv measured at 60 mins by HPLC analysis; assay type: ADME, organism-based; conditions: read-out: Stability
[24] = Metabolic stability in ICR mouse liver assessed as compound remaining at 35 to 45 Mbq, iv measured at 2 mins by HPLC analysis; assay type: ADME, organism-based; conditions: read-out: Stability
[25] = Metabolic stability in ICR mouse plasma assessed as compound remaining at 35 to 45 Mbq, iv measured at 2 mins by HPLC analysis; assay type: ADME, organism-based; conditions: read-out: Stability
[26] = Metabolic stability in ICR mouse feces assessed as compound remaining at 35 to 45 Mbq, iv measured at 30 mins by HPLC analysis; assay type: ADME, organism-based; conditions: faeces, read-out: Stability
[27] = system: Plasma; experiment: Retention time of the compound in ICR mouse plasma at 35 to 45 Mbq, iv by HPLC analysis; assay type: ADME, organism-based
[28] = system: Liver; experiment: Retention time of the compound in ICR mouse liver at 35 to 45 Mbq, iv by HPLC analysis; assay type: ADME, organism-based
[29] = Metabolic stability in ICR mouse brain assessed as compound remaining at 35 to 45 Mbq, iv measured at 30 mins by HPLC analysis; assay type: ADME, organism-based; conditions: read-out: Stability
[30] = Metabolic stability in ICR mouse plasma assessed as compound remaining at 35 to 45 Mbq, iv measured at 30 mins by HPLC analysis; assay type: ADME, organism-based; conditions: read-out: Stability
[31] = Metabolic stability in ICR mouse plasma assessed as compound remaining at 35 to 45 Mbq, iv measured at 60 mins by HPLC analysis; assay type: ADME, organism-based; conditions: read-out: Stability
[32] = system: Brain; experiment: Ratio of drug level in iv dosed ICR mouse brain at 2 to 60 mins; assay type: ADME, organism-based; conditions: in vivo
[33] = system: Mus musculus; experiment: In vivo binding affinity to amyloid beta plaques in C57BL6 Appswe/PSEN1 Tg mouse cerebellum at 1 mCi, iv after 20 mins by DANIR 3b staining based autoradiographic analysis; assay type: functional, organism-based; conditions: tested as the 18F-labelled form
[34] = system: Mus musculus; experiment: In vivo binding affinity to amyloid beta in wild type C57BL6 mouse brain cortex at 1 mCi, iv after 20 mins by DANIR 3b staining based autoradiographic analysis; assay type: functional, organism-based; conditions: tested as the 18F-labelled form
[35] = system: Mus musculus; experiment: In vivo binding affinity to amyloid beta in wild type C57BL6 mouse cerebellum at 1 mCi, iv after 20 mins by DANIR 3b staining based autoradiographic analysis; assay type: functional, organism-based; conditions: tested as the 18F-labelled form
[36] = system: Mus musculus; experiment: In vivo binding affinity to amyloid beta in wild type C57BL6 mouse hippocampus at 1 mCi, iv after 20 mins by DANIR 3b staining based autoradiographic analysis; assay type: functional, organism-based; conditions: tested as the 18F-labelled form
[37] = system: Mus musculus; experiment: In vivo binding affinity to amyloid beta plaques in C57BL6 Appswe/PSEN1 Tg mouse brain cortex at 1 mCi, iv after 20 mins by DANIR 3b staining based autoradiographic analysis; assay type: functional, organism-based; conditions: tested as the 18F-labelled form
[38] = system: Mus musculus; experiment: In vivo binding affinity to amyloid beta plaques in C57BL6 Appswe/PSEN1 Tg mouse hippocampus at 1 mCi, iv after 20 mins by DANIR 3b staining based autoradiographic analysis; assay type: functional, organism-based; conditions: tested as the 18F-labelled form

T1 sequence (P05067 whole entry): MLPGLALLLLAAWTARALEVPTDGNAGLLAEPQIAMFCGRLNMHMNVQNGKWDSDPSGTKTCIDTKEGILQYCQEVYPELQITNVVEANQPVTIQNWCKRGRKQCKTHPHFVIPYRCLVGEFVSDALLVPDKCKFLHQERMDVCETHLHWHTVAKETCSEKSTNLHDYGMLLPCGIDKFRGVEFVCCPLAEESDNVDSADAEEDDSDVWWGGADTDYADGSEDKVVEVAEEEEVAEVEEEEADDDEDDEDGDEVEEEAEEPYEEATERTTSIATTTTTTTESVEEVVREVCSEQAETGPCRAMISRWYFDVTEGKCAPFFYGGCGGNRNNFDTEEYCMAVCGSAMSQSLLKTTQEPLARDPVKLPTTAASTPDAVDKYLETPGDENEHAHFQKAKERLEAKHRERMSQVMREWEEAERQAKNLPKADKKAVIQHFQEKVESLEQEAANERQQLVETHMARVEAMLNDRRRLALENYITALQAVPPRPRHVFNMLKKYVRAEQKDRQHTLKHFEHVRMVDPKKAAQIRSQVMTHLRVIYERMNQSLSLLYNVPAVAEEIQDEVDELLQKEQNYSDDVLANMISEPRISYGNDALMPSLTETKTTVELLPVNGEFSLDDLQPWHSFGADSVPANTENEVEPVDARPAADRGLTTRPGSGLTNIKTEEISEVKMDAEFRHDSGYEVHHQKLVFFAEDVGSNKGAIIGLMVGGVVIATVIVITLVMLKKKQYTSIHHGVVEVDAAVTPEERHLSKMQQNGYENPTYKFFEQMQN

## CN(C)c1ccc(COc2ccc(OCCOCCOCCF)cc2)cc1
[1]
  Ki: 358 nM
  inhibition: Dose-dependent effect

## COc1ccc(OCc2ccc(OCC[18F])cc2)cc1
[2]
  Drug uptake: 4.97 % ID/g
[3]
  Drug uptake: 7.31 %ID
[4]
  Drug uptake: 7.54 % ID/g
[5]
  Drug uptake: 0.96 %ID
[6]
  Drug uptake: 10.75 %ID
[7]
  Drug uptake: 0.98 %ID
[8]
  Drug uptake: 1.29 %ID
[9]
  logD: 3.05
[10]
  Drug uptake: 6.85 %ID
[11]
  Drug uptake: 1.32 %ID
[12]
  Drug uptake: 4.83 %ID

## CNc1ccc(/C=C/c2ccc(OCCOCCOCCF)nc2)cc1 [FLORBETAPIR]
[1]
  Ki: 11.4 nM
  inhibition: Dose-dependent effect

## CN(C)c1ccc(COc2ccc(OCCOCCF)cc2)cc1
[1]
  Ki: 191 nM
  inhibition: Dose-dependent effect

## COc1ccc(COc2ccc(OCCOCCF)cc2)cc1
[1]
  Ki: 438 nM
  inhibition: Dose-dependent effect

## CNc1ccc(-c2nc3ccc(O)cc3s2)cc1
[1]
  inhibition: Dose-dependent effect

## CN(C)c1ccc(COc2ccc(OCCF)cc2)cc1
[13]
  Activity: inactive
[14]
  Activity: Active
[15]
  Activity: inactive
[16]
  Activity: inactive
[17]
  Activity: Active
[1]
  Ki: 25.7 nM
  inhibition: Dose-dependent effect
[18]
  Activity: inactive

## CNc1ccc(/C=C/c2ccc(OCCOCCOCC[18F])nc2)cc1 [FLORBETAPIR F 18]
[19]
  Ratio: 3.9

## CN(C)c1ccc(COc2ccc(OCC[18F])cc2)cc1
[2]
  Drug uptake: 3.23 % ID/g
[3]
  Drug uptake: 5.52 %ID
[4]
  Drug uptake: 4.51 % ID/g
[20]
  remaining at 1 h: 10.6%
[21]
  remaining at 0.5 h: 8.4%
[5]
  Drug uptake: 0.54 %ID
[6]
  Drug uptake: 1.72 %ID
[7]
  Drug uptake: 0.22 %ID
[22]
  remaining at 2 min: 76.7%
[23]
  remaining at 1 h: 16.7%
[24]
  remaining at 2 min: 22.6%
[25]
  remaining at 2 min: 10.8%
[8]
  Drug uptake: 0.37 %ID
[26]
  remaining at 0.5 h: 14.6%
[9]
  logD: 3.11
[10]
  Drug uptake: 2.35 %ID
[27]
  Retention_time: 9.1 min
[28]
  Retention_time: 9.1 min
[11]
  Drug uptake: 0.92 %ID
[29]
  remaining at 0.5 h: 20.6%
[12]
  Drug uptake: 3.12 %ID

## CN(C)c1ccc(-c2cn3cc(I)ccc3n2)cc1
[1]
  inhibition: Dose-dependent effect

## COc1ccc(COc2ccc(OCC[18F])cc2)cc1
[2]
  Drug uptake: 7.47 % ID/g
[3]
  Drug uptake: 7.09 %ID
[4]
  Drug uptake: 9.95 % ID/g
[5]
  Drug uptake: 1.08 %ID
[6]
  Drug uptake: 13 %ID
[7]
  Drug uptake: 0.77 %ID
[8]
  Drug uptake: 0.78 %ID
[9]
  logD: 3.65
[10]
  Drug uptake: 7.66 %ID
[11]
  Drug uptake: 1.22 %ID
[12]
  Drug uptake: 4.41 %ID

## CN(C)c1ccc(OCc2ccc(OCC[18F])cc2)cc1
[2]
  Drug uptake: 6.38 % ID/g
[3]
  Drug uptake: 5.49 %ID
[4]
  Drug uptake: 9.14 % ID/g
[20]
  remaining at 1 h: 4.4%
[21]
  remaining at 0.5 h: 9.2%
[30]
  remaining at 0.5 h: 5.8%
[5]
  Drug uptake: 4.11 %ID
[6]
  Drug uptake: 6.71 %ID
[7]
  Drug uptake: 3.58 %ID
[22]
  remaining at 2 min: 95.4%
[31]
  remaining at 1 h: 5.1%
[23]
  remaining at 1 h: 14.8%
[24]
  remaining at 2 min: 63.5%
[25]
  remaining at 2 min: 56.5%
[32]
  Ratio: 5.1
[8]
  Drug uptake: 4.69 %ID
[26]
  remaining at 0.5 h: 22.7%
[9]
  logD: 2.75
[10]
  Drug uptake: 5.63 %ID
[11]
  Drug uptake: 2.48 %ID
[29]
  remaining at 0.5 h: 31.6%
[12]
  Drug uptake: 5.16 %ID

## COc1ccc(OCc2ccc(OCCF)cc2)cc1
[1]
  Ki: 153 nM
  inhibition: Dose-dependent effect

## COc1ccc(COc2ccc(OCCOCCOCC[18F])cc2)cc1
[2]
  Drug uptake: 11.16 % ID/g
[3]
  Drug uptake: 6.3 %ID
[4]
  Drug uptake: 9.71 % ID/g
[5]
  Drug uptake: 1.1 %ID
[6]
  Drug uptake: 26.12 %ID
[7]
  Drug uptake: 0.9 %ID
[8]
  Drug uptake: 1.52 %ID
[9]
  logD: 3.04
[10]
  Drug uptake: 16.43 %ID
[11]
  Drug uptake: 1.53 %ID
[12]
  Drug uptake: 6.18 %ID

## COc1ccc(COc2ccc(OCCF)cc2)cc1
[1]
  Ki: 119 nM
  inhibition: Dose-dependent effect

## CN(C)c1ccc(OCc2ccc(OCCF)cc2)cc1
[33]
  Activity: Active
[13]
  Activity: inactive
[14]
  Activity: Active
[34]
  Activity: inactive
[15]
  Activity: inactive
[16]
  Activity: inactive
[17]
  Activity: Active
[1]
  Ki: 21 nM
  inhibition: Dose-dependent effect
[35]
  Activity: inactive
[18]
  Activity: inactive
[36]
  Activity: inactive
[37]
  Activity: Active
[38]
  Activity: Active

## COc1ccc(COc2ccc(OCCOCCOCCF)cc2)cc1
[1]
  Ki: 770 nM
  inhibition: Dose-dependent effect

Reference: ChEMBL document CHEMBL3758095, “Preliminary evaluation of fluoro-pegylated benzyloxybenzenes for quantification of β-amyloid plaques by positron emission tomography” (Eur J Med Chem, 2015)
